According to patent US20240254119A1 (THIRD HARMONIC BIO, INC., priority 2022, published 2024):
pIC50: −log10 of the molar value.

Legend:
CSF-1R = biological target: T1, CSF-1R (Homo sapiens, UniProt P07333); experiment: Caliper biochemical assay, CSF-1R; conditions: Table 6
T1 construct: purchased Invitrogen PV3249 (lot 662393N)
Procedure: (§1) Enzyme, substrate, and cofactors (ATP and Mn^2+) are combined in a well of a microtiter plate and incubated for 3 hours at 25° C. At the end of the incubation, the reaction is quenched by the addition of an EDTA-containing buffer. Substrate and product are separated electrophoretically using the microfluidic-based LabChip 3000 Drug Discovery System from Caliper Life Sciences* and quantitated by fluorescence intensity.
(§2) The substrate used in the CSF-1R and PDGFRα assay is FAM-[…]-CONH2 (FAM is carboxyfluorescein). Peptide should be >95% purity. The substrate for the KIT assay is FAM-[…]-NH2.
(§3) • 1. To a well of a 384-well plate add 5 μL of 2× enzyme buffer (or control) • 2. Add 100 nL of 100× compound. • 3. Add 5 μL of 2× substrate buffer. • 4. Incubate plate at 25° C. for 3 hours. • 5. Add 10 uL of […]. • 6. Read plate LabChip 3000 Drug Discovery System
(§4) • 3 hours at 25° C. where 100% Inhibitor: No enzyme.

Kinetic solubility assay = assay type: physicochemical; conditions: kinetic solubility, 50 mM PB (pH 7.4), shaken 24 hours at RT
How it was run: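 Test compounds from 10 mM DMSO stock were diluted in 50 mM phosphate buffer, pH 7.4, and shaken for 24 h at RT. After PTFE filtration and centrifugation, filtrate concentration was quantified by UPLC-UV/HPLC-UV against a standard curve.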

wtKIT [1] = biological target: T2, wtKIT (Homo sapiens, UniProt P10721); experiment: Caliper biochemical assay, wtKIT; conditions: Table 6, read-out: KIT Biochemical IC50 avg
T2 construct: 1888289AM in the reaction mixtures
Procedure: as §1, §2, §3, §4
• 100 mM HEPES, pH 7.5 0.1% BSA • 0.01% Triton X-100 • 1 mM DTT • 10 mM MnCl2 • 10 μM Sodium Orthovanadate • 10 μM Beta-Glycerophosphate • 400 μM ATP • 1% DMSO (from compound) • 1 μM FAM-[…]-CONH2 5.0 nM wtKIT Enzyme (1888289AM)* • *Specific activity may vary from lot to lot. Enzyme concentration may need to be adjusted to yield 10-20% conversion of substrate to product.

PDGFRα = biological target: T3, PDGFRα (Homo sapiens, UniProt P16234); experiment: Caliper biochemical assay, PDGFRα; conditions: Table 6
T3 construct: purchased Millipore 14-467 (lot 26321_ACTI)
Procedure: as §1, §2, §3, §4

[2] = biological target: T4, BCRP (BCRP-MDCKII monolayer) (Homo sapiens, UniProt Q9UNQ0); experiment: MDCKII-BCRP bidirectional transport assay; assay type: in vitro ADME; conditions: for MDCK-BCRP: Papp A-B: apical to basolateral
T4 construct: host or cells: MDCKII (canine kidney) cells
T4 sequence (Q9UNQ0 1-655): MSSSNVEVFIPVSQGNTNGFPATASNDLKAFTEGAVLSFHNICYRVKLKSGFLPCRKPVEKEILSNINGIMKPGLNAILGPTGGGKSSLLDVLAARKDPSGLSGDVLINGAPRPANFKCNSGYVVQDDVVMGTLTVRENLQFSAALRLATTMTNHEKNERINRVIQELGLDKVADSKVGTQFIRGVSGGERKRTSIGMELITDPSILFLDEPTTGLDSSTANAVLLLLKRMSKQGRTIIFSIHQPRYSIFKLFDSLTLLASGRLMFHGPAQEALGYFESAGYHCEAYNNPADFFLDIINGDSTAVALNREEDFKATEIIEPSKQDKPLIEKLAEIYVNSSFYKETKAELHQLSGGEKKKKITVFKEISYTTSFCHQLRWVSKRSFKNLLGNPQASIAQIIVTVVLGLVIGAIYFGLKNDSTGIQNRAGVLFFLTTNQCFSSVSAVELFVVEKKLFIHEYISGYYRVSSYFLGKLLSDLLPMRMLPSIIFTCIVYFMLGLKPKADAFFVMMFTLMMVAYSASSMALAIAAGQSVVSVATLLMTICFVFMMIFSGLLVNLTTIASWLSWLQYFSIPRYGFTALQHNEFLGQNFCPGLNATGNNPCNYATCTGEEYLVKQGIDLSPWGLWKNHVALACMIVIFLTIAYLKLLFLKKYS
Procedure: Exemplary compounds were tested for cell permeability in Caco-2, MDCKII-MDR1 and MDCKII-BCRP cell lines with efflux transporter engagement inferred from the efflux ratios determined. Procedures and results are described below. […] This feature of certain compounds is in part due to efflux transporter engagement. See, for instance, exemplary such compounds included in data tables below.
The reference compound Teriflunomide and test compounds are tested in the bidirectional assay. Test compound and reference compounds incubations were tested in duplicates.
The transport assay can be performed between days 12 to day 15 using ready to use PreadyPort™ BCRP-MDCKII monolayer in 96 well plate.
The medium was aspirated from the apical and basal compartments and 75 and 235 μL assay buffer was added to each of the 96 wells of apical and basal compartments of the PreadyPort™ plate.
The plates were pre-incubated for 15 min at 37° C. with 5% CO2 in humidified atmosphere. After preincubation the assay buffer was removed from the apical and basal inserts of the plate.
In apical to basolateral (A→B) transport, 75 μL of test or reference compound working solution to apical inserts and 235 μL of blank assay buffer were added to the corresponding basal compartments.
In basolateral to apical transport, 235 μL of test or reference compound working solution to the basal compartments and 75 μL of blank assay buffer solution were added to corresponding apical inserts.
The sandwich plate was incubated for 120 min in incubator at 5% CO2 and 37° C.
After incubation, 60 μL was transferred from receiver and donor compartments to collection plate.
For donor and C0 samples 20-fold dilution was accomplished by mixing 60 μL of collected sample with 1140 μL of transport buffer and from that solution aliquot 60 μL transfer Both receiver and donor samples were processed by adding […] of acetonitrile containing internal standard (60 μL of sample+240 μL of acetonitrile containing glyburide as internal standard, 125 ng/mL) and vortexing the samples. The compound concentration was measured in all samples using respective calibration standards by LC-MS/MS.
Calculate the Papp and recovery using the given formula:
[formula] [formula] • Where: dQ/dt=Permeability rate in μM/see • C0=Initial concentration in μM • A=Membrane surface area (0.33 cm^2) • V=Volume of receiver chamber • Cend, a=concentration in acceptor well at end of incubation • Cend, d=concentration in donor well at end of incubation • CHBSS=loading concentration measured in HBSS

wtKIT [3] = biological target: T2, wtKIT; experiment: HTRF biochemical assay, wtKIT (phosphorylation of a peptide substrate); conditions: Table 4
How it was run: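 wtKIT (5.0 nM) phosphorylating 1 µM FAM-labelled peptide with 400 µM ATP and 10 mM MnCl2 in 100 mM HEPES pH 7.5, 1% DMSO, 3 h at 25 °C. EDTA quench; phosphopeptide detected with anti-phosphotyrosine antibody by HTRF. Enzyme titrated for 10-20% substrate conversion.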

T2 sequence (P10721 26-976): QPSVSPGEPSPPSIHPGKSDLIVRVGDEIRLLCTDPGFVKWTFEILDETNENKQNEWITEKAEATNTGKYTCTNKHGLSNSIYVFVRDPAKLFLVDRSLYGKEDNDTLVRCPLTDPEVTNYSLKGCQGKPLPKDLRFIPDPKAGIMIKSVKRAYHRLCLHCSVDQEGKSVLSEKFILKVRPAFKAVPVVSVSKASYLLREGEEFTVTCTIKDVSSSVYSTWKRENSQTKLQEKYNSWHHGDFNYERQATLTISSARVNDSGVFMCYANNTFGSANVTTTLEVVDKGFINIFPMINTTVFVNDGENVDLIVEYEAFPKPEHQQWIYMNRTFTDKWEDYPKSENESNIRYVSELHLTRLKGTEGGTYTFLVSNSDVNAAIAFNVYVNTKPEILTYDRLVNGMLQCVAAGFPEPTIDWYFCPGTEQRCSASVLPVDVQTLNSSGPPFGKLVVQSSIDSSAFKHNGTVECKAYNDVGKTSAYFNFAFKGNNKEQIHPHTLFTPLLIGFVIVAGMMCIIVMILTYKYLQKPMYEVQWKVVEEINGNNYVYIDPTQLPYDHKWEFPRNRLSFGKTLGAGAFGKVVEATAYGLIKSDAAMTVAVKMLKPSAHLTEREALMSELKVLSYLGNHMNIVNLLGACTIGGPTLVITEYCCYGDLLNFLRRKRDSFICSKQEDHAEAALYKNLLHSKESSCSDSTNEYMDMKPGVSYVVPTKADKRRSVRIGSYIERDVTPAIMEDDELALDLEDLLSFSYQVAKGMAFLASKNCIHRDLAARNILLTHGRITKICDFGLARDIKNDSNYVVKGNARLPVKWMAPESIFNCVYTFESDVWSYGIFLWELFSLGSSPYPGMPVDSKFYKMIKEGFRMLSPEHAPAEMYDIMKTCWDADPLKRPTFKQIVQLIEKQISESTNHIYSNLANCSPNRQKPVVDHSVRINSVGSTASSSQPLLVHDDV
T1 sequence (P07333 20-972): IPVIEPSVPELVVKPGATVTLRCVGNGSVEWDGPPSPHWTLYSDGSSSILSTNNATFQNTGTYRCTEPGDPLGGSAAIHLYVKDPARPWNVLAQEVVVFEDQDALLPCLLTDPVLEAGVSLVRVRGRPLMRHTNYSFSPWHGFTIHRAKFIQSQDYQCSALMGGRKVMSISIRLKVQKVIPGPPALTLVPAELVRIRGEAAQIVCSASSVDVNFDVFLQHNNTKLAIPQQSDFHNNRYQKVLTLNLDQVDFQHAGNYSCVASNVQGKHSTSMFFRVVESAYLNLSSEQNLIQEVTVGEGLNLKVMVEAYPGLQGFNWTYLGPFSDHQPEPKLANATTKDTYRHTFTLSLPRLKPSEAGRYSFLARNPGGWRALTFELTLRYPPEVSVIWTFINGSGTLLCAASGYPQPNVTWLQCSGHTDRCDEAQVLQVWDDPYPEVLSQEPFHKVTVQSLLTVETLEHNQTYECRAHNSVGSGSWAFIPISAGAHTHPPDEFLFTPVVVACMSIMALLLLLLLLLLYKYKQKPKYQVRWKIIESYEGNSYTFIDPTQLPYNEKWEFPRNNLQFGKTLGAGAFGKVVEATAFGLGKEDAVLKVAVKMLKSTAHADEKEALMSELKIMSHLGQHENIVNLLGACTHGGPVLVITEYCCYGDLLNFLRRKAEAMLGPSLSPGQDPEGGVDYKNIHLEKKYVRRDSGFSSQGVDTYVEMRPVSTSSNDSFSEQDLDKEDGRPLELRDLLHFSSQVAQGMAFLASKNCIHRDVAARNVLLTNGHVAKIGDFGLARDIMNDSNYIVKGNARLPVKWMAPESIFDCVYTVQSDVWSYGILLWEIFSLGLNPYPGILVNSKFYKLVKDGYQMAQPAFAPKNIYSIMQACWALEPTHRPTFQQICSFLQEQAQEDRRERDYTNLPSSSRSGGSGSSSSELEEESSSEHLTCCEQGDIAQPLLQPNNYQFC
T3 sequence (P16234 24-1089): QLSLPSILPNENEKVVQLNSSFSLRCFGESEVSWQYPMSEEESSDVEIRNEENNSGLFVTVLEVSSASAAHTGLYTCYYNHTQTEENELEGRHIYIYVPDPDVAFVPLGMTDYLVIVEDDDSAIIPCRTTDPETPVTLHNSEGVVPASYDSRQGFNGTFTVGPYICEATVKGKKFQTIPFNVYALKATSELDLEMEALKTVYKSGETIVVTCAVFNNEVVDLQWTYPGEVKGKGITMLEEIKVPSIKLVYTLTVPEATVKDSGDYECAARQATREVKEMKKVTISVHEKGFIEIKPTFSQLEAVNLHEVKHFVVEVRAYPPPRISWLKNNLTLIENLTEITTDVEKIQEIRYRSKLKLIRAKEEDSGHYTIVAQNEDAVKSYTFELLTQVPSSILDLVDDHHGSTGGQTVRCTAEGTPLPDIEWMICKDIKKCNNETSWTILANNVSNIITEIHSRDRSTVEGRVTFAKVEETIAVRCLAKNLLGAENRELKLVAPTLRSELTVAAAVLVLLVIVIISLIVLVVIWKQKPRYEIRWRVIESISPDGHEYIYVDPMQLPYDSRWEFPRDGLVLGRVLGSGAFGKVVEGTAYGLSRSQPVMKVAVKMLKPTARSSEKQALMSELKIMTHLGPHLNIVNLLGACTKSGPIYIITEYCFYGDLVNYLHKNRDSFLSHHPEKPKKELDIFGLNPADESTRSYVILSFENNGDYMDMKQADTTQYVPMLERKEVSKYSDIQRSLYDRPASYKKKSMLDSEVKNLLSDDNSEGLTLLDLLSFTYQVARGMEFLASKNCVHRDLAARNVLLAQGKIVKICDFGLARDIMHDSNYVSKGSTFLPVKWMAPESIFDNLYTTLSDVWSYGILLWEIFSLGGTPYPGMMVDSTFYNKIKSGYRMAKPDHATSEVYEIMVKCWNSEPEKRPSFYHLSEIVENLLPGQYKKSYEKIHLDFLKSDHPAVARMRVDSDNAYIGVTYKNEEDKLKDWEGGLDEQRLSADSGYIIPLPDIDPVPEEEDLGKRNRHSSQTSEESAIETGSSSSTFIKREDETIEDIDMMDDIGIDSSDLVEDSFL

pIC50 (CSF-1R)	pIC50 (wtKIT [1])	pIC50 (PDGFRα)	MDCK-BCRP: Efflux Ratio [2]	MDCK-BCRP: Papp A-B [2]	pIC50 (wtKIT [3])	Compound	Solubility (μM) (Kinetic solubility assay)
6.30 to 7.30	≥ 7.30	5.30 to 6.30				Cc1ccc(-c2noc(C3CCN3CCOC(F)(F)F)n2)cc1NC(=O)c1cnc2ccccn12 (racemic) [Compound I-168]	** (a solubility greater than 10 μM and less than or equal to 50 μM)
≥ 7.30	6.30 to 7.30	6.30 to 7.30				Cc1ccc(-c2noc(C3CCCCN3S(C)(=O)=O)n2)cc1NC(=O)c1cnc2ccccn12 (racemic) [Compound I-174]	*** (a solubility greater than 2 μM and less than or equal to 10 μM)
	6.30 to 7.30		1.75	2.63 10^−6 cm/s		CC(C)(C)OC(=O)N1CC(c2nc(-c3ccc(Br)c(NC(=O)c4cnc5ccccn45)c3)no2)C1 [Compound I-332]	**** (a solubility less than or equal to 2 μM)
	≥ 7.30		0.82	23.1 10^−6 cm/s		COC(=O)N1CC(c2nc(-c3ccc(Br)c(NC(=O)c4cnc5ccccn45)c3)no2)C1 [Compound I-338]	**** (a solubility less than or equal to 2 μM)
	≥ 7.30		1.33	40.1 10^−6 cm/s		COC1(OC)CC(c2nc(-c3ccc(C)c(NC(=O)c4cnc5ccccn45)c3)no2)C1 [Compound I-346]	*** (a solubility greater than 2 μM and less than or equal to 10 μM)
	≥ 7.30		1.03	7.97 10^−6 cm/s		CSCC1(c2nc(-c3ccc(C)c(NC(=O)c4cnc5ccccn45)c3)no2)CC(F)(F)C1 [Compound I-354]	**** (a solubility less than or equal to 2 μM)
	6.30 to 7.30		63.9	0.47 10^−6 cm/s		Cc1ccc(-c2noc(C3CC(O)(C4(O)CCC4)C3)n2)cc1NC(=O)c1cnc2ccccn12 (stereo not drawn) [Compound I-357]	*** (a solubility greater than 2 μM and less than or equal to 10 μM)
	≥ 7.30		1.05	14.3 10^−6 cm/s		Cc1ccc(-c2noc(C3(C)CC(F)(F)C3)n2)cc1NC(=O)c1cnc2ccccn12 [Compound I-385]	**** (a solubility less than or equal to 2 μM)
	6.30 to 7.30		1.33	20.3 10^−6 cm/s		Cc1ccc(-c2noc([C@H]3CCN(C(=O)OC(C)(C)C)C3)n2)cc1NC(=O)c1cnc2ccccn12 [Compound I-398]	*** (a solubility greater than 2 μM and less than or equal to 10 μM)

Further lines, the compound ahead of its results:

Compound	pIC50 (CSF-1R)	pIC50 (wtKIT [1])	pIC50 (PDGFRα)	MDCK-BCRP: Efflux Ratio [2]	MDCK-BCRP: Papp A-B [2]	pIC50 (wtKIT [3])	Solubility (μM) (Kinetic solubility assay)
Cc1ccc(-c2noc(C3CC(S(=O)(=O)N(C)C)C3)n2)cc1NC(=O)c1cnc2ccccn12 (stereo not drawn) [Compound I-211]		≥ 7.30		14.1	1.91 10^−6 cm/s	6.30 to 7.30	*** (a solubility greater than 2 μM and less than or equal to 10 μM)
COC(=O)N1CC(c2nc(-c3ccc(C)c(NC(=O)c4cnc5ccc(OC[C@H](C)O)cn45)c3)no2)C1 [Compound I-246]		≥ 7.30		16.9	1.81 10^−6 cm/s	6.30 to 7.30	**** (a solubility less than or equal to 2 μM)
COC(=O)C1CC(c2nc(-c3ccc(C)c(NC(=O)c4cnc5ccccn45)c3)no2)C1 (stereo not drawn) [Compound I-342]		≥ 7.30		0.47	30 10^−6 cm/s		*** (a solubility greater than 2 μM and less than or equal to 10 μM)
Cc1ccc(-c2noc(C3CC4(COCCO4)C3)n2)cc1NC(=O)c1cnc2ccccn12 (stereo not drawn) [Compound I-343]		≥ 7.30		2.36	8.04 10^−6 cm/s		** (a solubility greater than 10 μM and less than or equal to 50 μM)
Cc1ccc(-c2noc(C3CC(O)(c4ccccc4)C3)n2)cc1NC(=O)c1cnc2ccccn12 (stereo not drawn) [Compound I-349]		≥ 7.30		2.56	16.6 10^−6 cm/s		**** (a solubility less than or equal to 2 μM)
COC1CC(c2nc(-c3ccc(C)c(NC(=O)c4cnc5ccccn45)c3)no2)C1 (stereo not drawn) [Compound I-350]		≥ 7.30		1.52	8.86 10^−6 cm/s		** (a solubility greater than 10 μM and less than or equal to 50 μM)
Cc1ccc(-c2noc(C3(C(F)F)CC(F)(F)C3)n2)cc1NC(=O)c1cnc2ccccn12 [Compound I-355]		≥ 7.30		0.91	12.3 10^−6 cm/s		**** (a solubility less than or equal to 2 μM)
COC(=O)C1CC(c2nc(-c3ccc(C)c(NC(=O)c4cnc5ccccn45)c3)no2)C1 (stereo not drawn) [Compound I-366]		≥ 7.30		1.31	10.2 10^−6 cm/s		**** (a solubility less than or equal to 2 μM)
COCC1(c2nc(-c3ccc(C)c(NC(=O)c4cnc5ccccn45)c3)no2)CC(F)(F)C1 [Compound I-378]		≥ 7.30		0.77	16 10^−6 cm/s		**** (a solubility less than or equal to 2 μM)
Cc1ccc(-c2noc(C3(C)CC(F)C3)n2)cc1NC(=O)c1cnc2ccccn12 (stereo not drawn) [Compound I-386]		≥ 7.30		1.56	11.4 10^−6 cm/s		**** (a solubility less than or equal to 2 μM)
